From patent publication US8436186B2, “Thiazolyl piperidine derivatives” (Merck Patent Gesellschaft mit beschrankter Haftung, priority 2008, dated 2013) come the findings set out here.

In the assay the target is SphK1 (Homo sapiens, UniProt Q9NYA1). As to the kind of experiment: SphK1 384-well flashplate kinase assay. The format is biochemical. Particulars: enzyme assay. The procedure:
The kinase assay is carried out as a 384-well flashplate assay.
5 nM modified SphK1, 800 nM omega-biotinyl-D-erythro-sphingosine and 1 μM ATP (with 0.3 μCi of ^33P-ATP/well) are incubated in a total volume of 50 μl (25 mM HEPES, 5 mM MgCl2, 1 mM dithiothreitol, 0.01% of Brij35, 0.1% of BSA (fatty acid-free), pH 7.4) without or with test substance (5-10 concentrations) at 30° C. for 120 min. The reaction is terminated using 25 μl of 200 mM EDTA solution, filtered off with suction at room temperature after 30 min, and the cavities are washed 3 times with 100 μl of 0.9% NaCl solution. The non-specific proportion of the kinase reaction (blank) is determined using 0.5 mM NaCl. Radioactivity is measured in topcount. IC50 values are calculated using RS1.

SphK1, sequence (Q9NYA1 whole entry): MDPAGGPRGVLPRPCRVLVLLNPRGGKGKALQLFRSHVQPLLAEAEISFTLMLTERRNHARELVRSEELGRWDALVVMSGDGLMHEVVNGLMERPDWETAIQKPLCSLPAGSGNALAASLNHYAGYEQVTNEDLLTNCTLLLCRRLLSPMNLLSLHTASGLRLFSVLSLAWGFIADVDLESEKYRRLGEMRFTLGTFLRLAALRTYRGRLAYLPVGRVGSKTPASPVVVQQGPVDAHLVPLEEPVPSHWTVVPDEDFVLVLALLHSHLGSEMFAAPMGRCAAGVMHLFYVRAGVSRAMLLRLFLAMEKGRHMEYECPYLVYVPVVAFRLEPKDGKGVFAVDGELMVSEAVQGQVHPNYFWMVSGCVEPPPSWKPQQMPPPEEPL

Turning to `CC1(C)CCC(C)(C)c2cc(-c3csc(C4CCN(Cc5ccncc5)CC4)n3)ccc21` [Compound A74], the IC50 lay in the range of 1000 to 10000 nM.
In the case of `CC1(C)CCC(C)(C)c2cc(-c3csc(C4CCN(Cc5c[nH]cn5)CC4)n3)ccc21` [Compound A75], the IC50 was in the range of 10 to 1000 nM.
`CN(C)CC(C)(C)CN1CCC(c2nc(-c3ccc4c(c3)C(C)(C)CCC4(C)C)cs2)CC1` [Compound A76] showed an IC50 of over 10000 nM.
With `CC1(C)CCC(C)(C)c2cc(-c3csc(C4CCN(Cc5ccccn5)CC4)n3)ccc21` [Compound A77] the figure was 1000 to 10000 nM.
`COCC(C)NC(=O)N1CCC(c2nc(-c3ccc4c(c3)C(C)(C)CCC4(C)C)cs2)CC1` (centres unmarked) [Compound A78] had an IC50 of 1000 to 10000 nM.
Regarding `COCCCNC(=O)N1CCC(c2nc(-c3ccc4c(c3)C(C)(C)CCC4(C)C)cs2)CC1` [Compound A79], the IC50 is 1000 to 10000 nM.
The result for `CC(=O)N1CCC(c2nc(-c3ccc4c(c3)C(C)(C)CCC4(C)C)cs2)CC1` [Compound A80] reads 1000 to 10000 nM; that for `CC1(C)CCC(C)(C)c2cc(-c3csc(C4CCN(CCN)CC4)n3)ccc21` [Compound A81], 10 to 1000 nM.
The result for `Cc1oncc1S(=O)(=O)N1CCC(c2nc(-c3ccc4c(c3)C(C)(C)CCC4(C)C)cs2)CC1` [Compound A82] reads 1000 to 10000 nM.
`CC1(C)CCC(C)(C)c2cc(-c3csc(C4CCN(S(C)(=O)=O)CC4)n3)ccc21` [Compound A83] registered an IC50 of over 10000 nM.
In turn, `CC1(C)CCC(C)(C)c2cc(-c3csc(C4CCN(CCCN5CCOCC5)CC4)n3)ccc21` [Compound B1] came in with an IC50 of 1000 to 10000 nM.
The result for `CC1(C)CCC(C)(C)c2cc(-c3csc(C4CCN(CCCCO)CC4)n3)ccc21` [Compound B2] reads 10 to 1000 nM.
`CC1(C)CCCc2cc(-c3csc(C4CCN(CCCCO)CC4)n3)ccc21` [Compound B3] returned an IC50 of 10 to 1000 nM.
With `CC1(C)CC(C)(C)c2cc(-c3csc(C4CCN(CCCO)CC4)n3)ccc21` [Compound B4] the figure was 10 to 1000 nM; with `CC1(C)CC(C)(C)c2cc(-c3csc(C4CCN(CCCCCO)CC4)n3)ccc21` [Compound B5], 10 to 1000 nM; with `CC1(C)CC(C)(C)c2cc(-c3csc(C4CCN(CCCCO)CC4)n3)ccc21` [Compound B6], 10 to 1000 nM.
The molecule `CC1(C)CCC(C)(C)c2cc(-c3csc(C4CCN(Cc5cc[nH]n5)CC4)n3)ccc21` [Compound B7] returned an IC50 of 10 to 1000 nM.
Molecule `Cn1cccc1CN1CCC(c2nc(-c3ccc4c(c3)C(C)(C)CCC4(C)C)cs2)CC1` [Compound B8] displayed an IC50 of 1000 to 10000 nM.
`CC1(C)CCC(C)(C)c2cc(-c3csc(C4CCN(Cc5ccc(CO)o5)CC4)n3)ccc21` [Compound B9] displayed an IC50 of 1000 to 10000 nM.
As for `CC1(C)CCC(C)(C)c2cc(-c3csc(C4CCN(CCCCCO)CC4)n3)ccc21` [Compound B10], the IC50 fell in the range of 10 to 1000 nM.
On to `CCn1nccc1CN1CCC(c2nc(-c3ccc4c(c3)C(C)(C)CCC4(C)C)cs2)CC1` [Compound B11], for which the IC50 is 1000 to 10000 nM.
For the molecule `Cc1noc(C)c1CN1CCC(c2nc(-c3ccc4c(c3)C(C)(C)CCC4(C)C)cs2)CC1` [Compound B12], the IC50 is 1000 to 10000 nM.
The molecule `CC1(C)CCC(C)(C)c2cc(-c3csc(C4CCN(Cc5ncc[nH]5)CC4)n3)ccc21` [Compound B13] had an IC50 of 10 to 1000 nM.
As for `CN(C)n1cccc1CN1CCC(c2nc(-c3ccc4c(c3)C(C)(C)CCC4(C)C)cs2)CC1` [Compound B14], the IC50 is 1000 to 10000 nM.
With `CC1(C)CCC(C)(C)c2cc(-c3csc(C4CCN(C(=O)OCC5CNCCO5)CC4)n3)ccc21` (centres unmarked) [Compound B16], the IC50 lay in the range of 1000 to 10000 nM.
As for `CC1(O)CCCc2cc(-c3csc(C4CCNCC4)n3)ccc21` (centres unmarked) [Compound C2], the IC50 was in the range of 10 to 1000 nM.
The molecule `CC1(C)CCCc2ccc(-c3csc(C4CCNCC4)n3)cc21` [Compound C3] returned an IC50 of 10 to 1000 nM.
In turn, `Cc1cc2c(cc1-c1csc(C3CCNCC3)n1)C(C)(C)CCC2(C)C` [Compound C5] had an IC50 of 1000 to 10000 nM.
With `c1cc2c(cc1-c1csc(C3CCNCC3)n1)CCCC2` [Compound C6] the figure was 10 to 1000 nM.
Turning to `CC1(C)CC(C)(C)c2cc(-c3csc(C4CCNCC4)n3)ccc21` [Compound C7], the IC50 lay in the range of 10 to 1000 nM.
On to `Cc1cc(-c2csc(C3CCNCC3)n2)c(O)c2c1CCC2` [Compound C10], for which the IC50 lay in the range of 1000 to 10000 nM.
Turning to `CCc1cc2c(cc1-c1csc(C3CCNCC3)n1)C(C)(C)CCC2(C)C` [Compound C11], the half-inhibitory concentration (IC50) was over 10000 nM.

One may read the IC50 as the midpoint of a concentration-inhibition curve.
